Laboratory results as given in patent US11471502B2, “Neuroprotective peptide” (UNIVERSITY COLLEGE CARDIFF C[…], priority 2017, dated 2022).
“Also recorded” adds a separate entry of the source.

Key:
zQ175 mice = assay: Nose poke training (FR1) in 9-hole operant boxes, zQ175 model of Huntington's Disease; assay type: in vivo, mouse
Description: WT and zQ175 mice underwent daily 20 minutes nose poke training for 10 consecutive days (days 1-10) on a simple fixed ratio (FR1) schedule of reinforcement. Starting from day 11 mice received one administration of RB5 (20 mg/kg. i.p.) 1 h before the nose poke training. […] White star P<0.0001.
Operant testing was conducted in 16 9-hole operant boxes. Each operant box contains a horizontal array of nine holes with infrared beams localised to the front of each hole to detect nose pokes. A peristaltic pump delivers liquid reinforcement (strawberry milk) into a magazine at the front of the box.
A week before starting the training, mice undergo water restriction for 18 hours/day and are kept under this regimen throughout the experimental procedures. Mice are taught to nose poke on a simple fixed ratio (FR1) schedule of reinforcement: to obtain reward, mice are required to respond to a stimulus light in the central hole via a single nose poke. Mice are trained daily on this program during 20 minutes sessions for 10 days (training phase). Once trained, animals were subdivided in 4 groups and injected with RB5 or scramble (10 mg/kg, i.p.) peptides 1 hour before being tested on FR1 schedule for other 9 days.

[1] = target: phospho p44/p42 MAP kinase; assay: Dose response curve of RB5 for ERK activation in striatal slices; assay type: cell-based, mouse; settings: 200 μm striatal slices, 1 h pre-treatment; read-out: EC50 for enhancing pERK (phospho-ERK positive cells)
Description: a) RB5 peptide selectively promoted activation of ERK2. Acute striatal slices either pre-treated with Scramble (SCR) or RB5 peptide (50 μM) and then stimulated 10 minutes with glutamate (GLU) (100 μM) or vehicle were analysed in Western blot (left panel) and probed with anti phospho ERK antibodies (p44^ERK1 and p42^ERK2) and anti ERK1/2 antibody. GAPDH was used as loading control. […] No changes were detected in the total ERK1 and ERK2 levels. GAPDH was used as loading control. […] Mice injected with a single dose of CPP-SCR or CPP-RB5 peptides (20 mg/kg, i.p.) were rapidly perfused 1 h later and brains were dissected and further analysed for IHC and immunofluorescence. Representative photomicrographs of pERK1/2, pMSK, pAch3, pELK1 and c-Fos expression in the striatum. […] Two-way ANOVA Bonferroni post hoc comparison: one black star, p<0.05, two black stars, p<0.01, one white star, p<0.001. p) Dose response curve of RB5 peptide for ERK activation. 200 μm thick striatal slices were freshly prepared from 2-month old mice and transferred into a perfusion chamber for 1 h at 32° C. Slices were pre-treated with different doses of RB5 or scrambled control. After 1 h, slices for each dose was fixed in PFA 4% for 15 min. […] Neuronal quantification was performed with ImageJ software by counting the number of phospho-ERK positive cells in each slice. […] The EC50 was calculated using GraphPad Prism software.

Tg2576 mice = assay: Tg2576 mouse model of Alzheimer's Disease, neuroprotection; assay type: in vivo; settings: 20 mg/kg i.p., 7 days
Description: Two-way ANOVA Bonferroni post-hoc comparison **p<0.01***p<0.001.
The genetic model of Alzheimer's Disease Tg2576 and their WT controls have been treated for 7 days with RB5/scramble peptide (20 mg/kg, i.p).

[2] = tested on: C57BL/6 mice treated with 3-NP; assay: 3-Nitropropionic acid (3-NP) pharmacological mouse model of Huntington's disease; assay type: in vivo; settings: 20 mg/kg i.p. twice a day, 3-NP 50 mg/kg once a day, 7 days
Description: Importantly, this reduction resembled physiological condition (RB5 3-NP vs RB5 Saline p=0.85). Mean±SEM, n=10 each experimental group).
Before use, CCP-SCR and CPP-RB5 were diluted in PBS 1× and injected twice a day at 12 hr intervals (20 mg/kg). 3-NP was injected 1 h after peptides once a day for 7 consecutive days (50 mg/kg) in male C57B/6 mice. All drugs were administered by intraperitoneal (i.p.) injection in a volume of 10 ml/kg. The mice were euthanized 1 hr after the last peptide injection and transcardially perfused with buffered 4% PFA, and processed for immunohistochemistry. The DeadEnd Colorimetric TUNEL System (Promega) was used to detect apoptotic cells on tissue sections […] thick. For each animal three consecutive coronal sections were taken, mounted on glass slides and processed for immunohistochemical analysis according to the recommended procedures. For quantification, the number of positive neurons in each section was counted across the dorsolateral region of the striatum of both hemispheres and means values were calculated.
We set up a protocol in which male C57BL/6 mice were injected with CPP-SCR or CPP-RB5 peptides (20 mg/kg, i.p.) twice a day (every 12 h) for 7 days and 1 h after peptides injection they received one injection of 3-NP (50 mg/kg). At the end of treatment, animals were perfused and brains were prepared as for immunohistochemistry.

HdhQ111 mice = assay: HdhQ111 genetic mouse model of Huntington's disease; assay type: in vivo
Description: WT and HdhQ111 mice were treated with CPP-RB5 or Scramble (CPP-SCR) peptides (20 mg/kg i.p.) for 8 days.
Two-way ANOVA Bonferroni post-hoc comparison ***p<0.001.
HdhQ111 heterozygous mice (Jax®, Bar Harbour, Me., U.S.A.), zQ175 knock-in heterozygous (mix sex) carrying between 180 and 195 CAG repeats (CHDI-81003003, Psychogenics, Inc. Tarrytown, N.Y.) and Tg2576 transgenic male mice (C57BL6 and SLJ mix background, Taconic Biosciences) were used for IHC, IF and behavioural test.
We also evaluated the potential neuroprotective effect of RB5, in hdhQ111 transgenic mice, a late onset genetic model of Huntington's Disease. hdhQ111 mice were treated (20 mg/kg, i.p., twice a day) for 7 days (FIG. 5).

CSCC[C@H](NC(=O)[C@H](CCC(=O)O)NC(=O)[C@@H](NC(=O)[C@H](CCC(=O)O)NC(=O)CNC(=O)[C@@H]1CCCN1C(=O)[C@@H](NC(=O)CNC(=O)[C@@H]1CCCN1C(=O)CNC(=O)[C@@H](NC(=O)CNC(=O)[C@H](CCC(=O)O)NC(=O)[C@@H](NC(=O)[C@H](CCCNC(=N)N)NC(=O)[C@H](CCCNC(=N)N)NC(=O)[C@@H]1CCCN1C(=O)[C@H](CCC(=O)O)NC(=O)CNC(=O)CNC(=O)CNC(=O)CNC(=O)CNC(=O)[C@H](CCC(N)=O)NC(=O)[C@@H]1CCCN1C(=O)[C@@H]1CCCN1C(=O)[C@H](CCCNC(=N)N)NC(=O)[C@H](CCCNC(=N)N)NC(=O)[C@H](CCCNC(=N)N)NC(=O)[C@H](CCC(N)=O)NC(=O)[C@H](CCCNC(=N)N)NC(=O)[C@H](CCCNC(=N)N)NC(=O)[C@H](CCCCN)NC(=O)[C@H](CCCCN)NC(=O)[C@H](CCCNC(=N)N)NC(=O)CNC(C)=O)[C@@H](C)O)C(C)C)C(C)C)C(C)C)C(=O)N[C@H](C(=O)N[C@@H](CCCCN)C(=O)NCC(=O)N[C@@H](CCC(N)=O)C(=O)N1CCC[C@H]1C(=O)N[C@@H](Cc1ccccc1)C(=O)N[C@@H](CC(=O)O)C(=O)N[C@@H](C(=O)O)C(C)C)C(C)C [RB5]
nose poke performances / responses (zQ175 mice; WT and zQ175 female mice, 9 days of RB5 treatment): significant enhancement of the responses; also recorded: improved performances
nose poke responding (zQ175 mice; zQ175 female mice, 20 mg/kg i.p. 1 h before training from day 11): significantly improved
EC50 [1]: 3.4 µM
ERK activation (pERK) in hippocampal CA1 and Dentate Gyrus (Tg2576 mice): increased pERK; also recorded: significant enhancement of ERK activation
pre-apoptotic state (Cleaved Caspase-3 staining) (Tg2576 mice): reduced the levels of cleaved caspase-3 staining; also recorded: significant reduction of the pre-apoptotic state
Caspase-3 levels (striatum) [2]: diminished Caspase-3 levels
apoptotic levels (TUNEL, striatum) [2]: significant reduction of apoptotic levels
degeneration in the hdhQ111 mutants (HdhQ111 mice; 20 mg/kg i.p. twice a day, 7 days): prevents degeneration
ERK activation (pERK) in striatum (HdhQ111 mice; 20 mg/kg i.p., 8 days): elevated pERK in WT and mutant striata; also recorded: significant enhancement of ERK activation
apoptotic cells (TUNEL, dorsal striatum) (HdhQ111 mice; HdhQ111 mice, 20 mg/kg i.p., vs Scramble): significant reduction of apoptotic cells
pre-apoptotic state (Cleaved Caspase-3) (HdhQ111 mice; hdhQ111 mice, 20 mg/kg i.p.): significant reduction of pre-apoptotic state

GRKKRRQRRRPPQGGGGGEPRRTEGVGPGVPGEVEMVKGQPFDV (listed as Homo sapiens) [CPP-RB5]
Caspase-3 levels (striatum) [2]: reduce pre-apoptotic levels of Caspase 3 marker to control levels
apoptotic levels (TUNEL, striatum) [2]: reducing apoptosis to control levels
